Patent US9781938B2, “Method for eliciting plant immune responses by seed priming of heat-treated Bacillus culture solution” (KOREA RESEARCH INSTITUTE OF BIOSCIENCE AND BIOTECHNOLOGY, priority 2012, dated 2017)

Columns and labels:
Assay type in all cases: in vivo
cucumber = assay: Establishment of seed priming conditions using BTH: stem weight to see growth inhibition
Procedure: (§1) Regarding the priming of a cucumber seed, to establish conditions for seed treatment at which induced systemic resistance against is induced in a plant without inhibiting plant growth, a cucumber seed was treated with BTH (benzothiadiazole), i.e., a potent substance for eliciting resistance, and it was cultivated in a rectangular culture solution dish (125×125 mm) and a pot for determination. The cucumber seed (Bakbong Dadagi, manufactured by Nongwoo Bio, Korea) was subjected to surface sterilization for 5 minutes using 5% NaOCl and, after rinsing 5 times with sterilized water, died on a filter paper. The sterilized seed was soaked for 0, 6, 12, or 18 hours in BTH solution each at 0.1 μM, 10 μM, or 1 mM. 0 Hour means that the seed was dried immediately after soaking. The soaked seed was dried for 12 hours on a culture dish overlaid with a sterilized filter paper. The seed after priming was sown in a pot filled with soil for horticulture (Punong Co., Ltd., Korea) and also in a rectangular culture dish containing distilled water-agar medium (Water agar; WA, plant agar (8 g/L)). […] Seven days later, any symptom of disease was determined, and the degree of symptom was measured with scale of from 1 to 5. […] Stem weight was measured simultaneously with determination of the degree of symptom to see if there is any growth inhibition.

LOX gene = assay: qRT-PCR expression of plant disease resistance-related gene LOX in cucumber leaf after pathogen inoculation; settings: BTH treatment group; time not stated
Procedure: (§2) In order to measure an expression amount of a plant disease resistance-related gene, pathogen was inoculated to a cucumber, and sampling was made 0, 3 or 24 hours later. Total RNA was isolated from the sampled cucumber leaf by using RNeasy Plus Mini Kit (50). cDNA was synthesized from 2 μg of the RNA by using an oligo-dT primer and MMLV-RT (Moloney murine leukemia virus reverse transcriptase, Enzynomics, KOREA). cDNA was then used for qRT-PCR (quantitative Reverse Transcriptase Polymerase Chain Reaction) based on Chromo4 Real Time PCR system (BIO-RAD) by using each primer for the genes of LOX, PR2 and ETR that are known to be related to resistance to diseases. LOX primer is as follows; forward direction: 5′-[…]-3′ (SEQ ID NO: 1) and reverse direction: 5′-[…]-3′ (SEQ ID NO: 2), PR2 primer is as follows; forward direction: 5′-[…]-3′ (SEQ ID NO: 3) and reverse direction: 5′-[…]-3′ (SEQ ID NO: 4), and ETR primer is as follows; forward direction: 5′-[…]-3′ (SEQ ID NO: 5) and reverse direction: 5′-GCCAAAGACCACTGCCACA-3′ (SEQ ID NO: 6).

PR2 gene = assay: qRT-PCR expression of plant disease resistance-related gene PR2 in cucumber leaf after pathogen inoculation; settings: after 24 hours
Procedure: as §2

[1] = test system: Psuedomonas syringae pv. lachrymans; assay: Establishment of seed priming conditions using BTH: induced systemic resistance in cucumber (culture dish and pot), degree of symptom; settings: cucumber seed soaked in 1 mM BTH for 12 hours and 18 hours; in vitro and in planta
Procedure: as §1

Structure (SMILES): CSC(=O)c1cccc2nnsc12 [BTH, benzo(1,2,3)-thiadiazole-7-carbothioic acid S-methyl ester]
- growth inhibition (stem weight) (cucumber; seed soaked in 1 mM BTH for 12 hours): no growth inhibition
- growth inhibition (stem weight) (cucumber; seed treated with 1 mM BTH for 18 hours, compared to sterilized water control): growth inhibition is shown with a statistic significance
- expression level of LOX gene versus negative control (LOX gene): close to that of a negative control
- PR2 expression level (PR2 gene): 1.7
- PR2 expression level relative to water (0.4) (PR2 gene; vs negative control water): 4.3 times
- eliciting induced systemic resistance [1]: most effective
